Test systems include MCF7; LOX IMVI; HCT-15; SK-MEL-2; RXF 393; UACC-257; NCI-H460; SNB-19; SF-268; IGROV-1; SW-620; DMS-273; DMS-114; KM12; XF498; LXFL 529; TK-10; MDA-MB-231; Hs-578T; PC-3.
Experiment in all cases: NCI-60 cell line screen, 48 h

SMILES strings stand for the structures.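 Tested at 5 concentrations; 48 h exposure; 96-well plates; endpoints linearly interpolated, else capped at highest concentration. GI50 = concentration required for 50% inhibition of growth.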 Activity calls are given as the source filed them. No stated cut-off is given here; in the data, active = GI50 up to about 1.1 µM and inactive = higher. A value given as a limit tells only on which side of the number the result lay.

As for `CCCNC(=O)C(C)C1CCC2(C)C=CC(=O)C(C)=C2C1O` (configuration not stated), the GI50 was > 100 µM (inactive) with MCF7; > 100 µM (inactive) in the experiment with LOX IMVI; over 100 µM in the experiment with HCT-15; > 100 µM (inactive) in the experiment on SK-MEL-2; > 100 µM (inactive) in the experiment with RXF 393; > 100 µM (inactive) with UACC-257. The GI50 with NCI-H460, in the experiment with SNB-19, with SF-268, in the experiment on IGROV-1, in the experiment with SW-620 and in the experiment with DMS-273 was > 100 µM (inactive) throughout. Besides, the GI50 in the experiment on DMS-114, in the experiment on KM12 and with XF498 was > 100 µM (inactive) each time.

In the case of `Cc1nc2ccc(C(F)(F)F)cc2nc1Nc1ccc(Cl)c(Cl)c1`, the GI50 was 7.87 µM (inactive) with LXFL 529; 3.03 µM (inactive) with LOX IMVI; 6.12 µM with HCT-15; 17.6 µM (inactive) with TK-10; 14.3 µM (inactive) in the experiment on SK-MEL-2; 6.49 µM (inactive) with RXF 393. Besides, the GI50 with UACC-257 was 12.8 µM (inactive); in the experiment with NCI-H460, 2.65 µM (inactive); in the experiment on SNB-19, 14.1 µM (inactive); with SF-268, 13.8 µM (inactive); in the experiment with SW-620, 12.7 µM (inactive); in the experiment on DMS-273, 4.81 µM (inactive). Further, the GI50 in the experiment on XF498 is 10 µM (inactive).

Take `CC1NC(=O)C2=C1C(N)=NC(=O)C2` (configuration not stated): the GI50 in the experiment with LXFL 529 is > 100 µM (inactive); in the experiment on LOX IMVI, > 100 µM (inactive); in the experiment on HCT-15 it was over 100 µM; in the experiment on TK-10, > 100 µM (inactive); in the experiment on SK-MEL-2 it was > 100 µM (inactive); with RXF 393, > 100 µM (inactive). For the same molecule, the GI50 in the experiment with UACC-257, in the experiment on NCI-H460, in the experiment with SNB-19, in the experiment with SF-268, in the experiment with IGROV-1 and in the experiment on SW-620 was > 100 µM (inactive) throughout. For the same molecule, the GI50 in the experiment with DMS-273, with DMS-114, with KM12 and in the experiment with XF498 was > 100 µM (inactive) throughout.

With `N#Cc1ccccc1C(Cl)(Cl)c1cnccn1`, the GI50 was 75.9 µM (inactive) with LXFL 529; 24.2 µM (inactive) in the experiment on LOX IMVI; > 100 µM (inactive) in the experiment with TK-10; 67 µM (inactive) with SK-MEL-2; 26.4 µM (inactive) in the experiment on RXF 393; 88.1 µM (inactive) in the experiment with UACC-257. Moreover, the GI50 in the experiment with NCI-H460 was 47.4 µM (inactive); in the experiment with SNB-19, 56.5 µM (inactive); in the experiment with SF-268, 52.5 µM (inactive); in the experiment with IGROV-1, 44.1 µM (inactive); in the experiment on SW-620 it was 99.3 µM (inactive); in the experiment on DMS-273 it was 37.2 µM (inactive). The GI50 in the experiment with DMS-114 is 22.4 µM (inactive); with KM12, 37.8 µM (inactive); in the experiment with XF498, 17.9 µM (inactive).

As for `NCCCCNCCCNC(=O)c1nc(-c2nc(CCN)sc2Cl)sc1Cl`, the GI50 with LXFL 529 was 3.46 µM (inactive); in the experiment on HCT-15, over 100 µM; in the experiment with TK-10, > 100 µM (inactive); in the experiment on RXF 393 it was 12.4 µM (inactive); in the experiment on UACC-257 it was > 100 µM (inactive); in the experiment on NCI-H460 it was 27.7 µM (inactive). Besides, the GI50 was > 100 µM (inactive) in the experiment with SNB-19; 6.98 µM (inactive) in the experiment on SF-268; > 100 µM (inactive) in the experiment on IGROV-1; 16.7 µM (inactive) in the experiment with SW-620; 50.4 µM (inactive) with DMS-273; 18.8 µM (inactive) in the experiment with DMS-114. In addition, the GI50 in the experiment on KM12 is 27.5 µM (inactive); in the experiment on XF498 it was > 100 µM (inactive).

Turning to `CC1(C)N=C(N)N=C(N)N1c1ccc(CCCCc2ccc(S(=O)(=O)F)cc2Cl)c(Cl)c1`, the GI50 in the experiment with MCF7 was 2.39 µM (inactive); with LOX IMVI, 1.75 µM (inactive); in the experiment with HCT-15 it was 2.72 µM; with TK-10 it was 27.7 µM (inactive); in the experiment with SK-MEL-2, 8.34 µM (inactive); in the experiment on RXF 393 it was 14.2 µM (inactive). Further, the GI50 in the experiment on UACC-257 was 5.56 µM (inactive); with MDA-MB-231 it was 10.5 µM (inactive); in the experiment with NCI-H460, 0.266 µM (active); in the experiment on SNB-19, 3.64 µM (inactive); in the experiment on SF-268, 0.984 µM (active); in the experiment with IGROV-1, 0.39 µM (active). The GI50 with SW-620 is 2.7 µM (inactive); with Hs-578T, 74 µM (inactive); with DMS-273, 0.352 µM (active); in the experiment on DMS-114, 0.458 µM (active); in the experiment on KM12, 2.52 µM (inactive); with PC-3, 1.11 µM (active). In the experiment on XF498, the GI50 was 1.49 µM (inactive).

`CC(=O)n1nnc2ccc([N+](=O)[O-])cc21`: the GI50 in the experiment on LXFL 529, in the experiment with LOX IMVI, in the experiment on TK-10, in the experiment on SK-MEL-2, in the experiment with RXF 393 and with UACC-257 was > 100 µM (inactive) in each case. The GI50 in the experiment with NCI-H460, in the experiment with SNB-19, in the experiment on SF-268, with IGROV-1, in the experiment with SW-620 and with DMS-273 was > 100 µM (inactive) throughout. Besides, the GI50 in the experiment on DMS-114, with KM12 and with XF498 was > 100 µM (inactive) each time.

For the molecule `CC(=O)NC(CCCNC(=O)N(C)N=O)C(=O)NCc1ccccc1` (configuration not stated), the GI50 with LXFL 529 is > 100 µM (inactive); with LOX IMVI it was > 100 µM (inactive); in the experiment with HCT-15 it was over 100 µM; in the experiment on TK-10, > 100 µM (inactive); in the experiment with SK-MEL-2, > 100 µM (inactive); in the experiment with RXF 393 it was > 100 µM (inactive). Besides, the GI50 with UACC-257, in the experiment with NCI-H460, with SNB-19, in the experiment with SF-268, with IGROV-1 and in the experiment on SW-620 was > 100 µM (inactive) in each case. In addition, the GI50 in the experiment with DMS-273, in the experiment on DMS-114, in the experiment with KM12 and with XF498 was > 100 µM (inactive) in each case.

With `C#C[C@H](CCCC)OC(=O)N[C@H](C)c1ccccc1`, the GI50 in the experiment with LXFL 529 was 36.3 µM (inactive); in the experiment with LOX IMVI, 33.2 µM (inactive); in the experiment on TK-10, 37.8 µM (inactive); in the experiment on SK-MEL-2, 36.1 µM (inactive); in the experiment on RXF 393, 30.9 µM (inactive); in the experiment on UACC-257, 24.8 µM (inactive). The GI50 in the experiment on NCI-H460 is 58.2 µM (inactive); in the experiment with SNB-19, > 100 µM (inactive); in the experiment with SF-268, 63.7 µM (inactive); with IGROV-1, 75.3 µM (inactive); in the experiment on SW-620 it was 68.2 µM (inactive); in the experiment on DMS-273, 38.8 µM (inactive). Besides, the GI50 was 28.2 µM (inactive) in the experiment on DMS-114, 51.3 µM (inactive) in the experiment with KM12 and 84.1 µM (inactive) in the experiment with XF498.

Take `CC(=O)C1CC(C)=CCC12C(=O)Nc1ccccc12` (configuration not stated): the GI50 in the experiment on LXFL 529 is > 100 µM (inactive); with LOX IMVI, > 100 µM (inactive); in the experiment with HCT-15, over 100 µM; in the experiment on TK-10, > 100 µM (inactive); in the experiment on SK-MEL-2, > 100 µM (inactive); in the experiment on RXF 393 it was 13.9 µM (inactive). For the same molecule, the GI50 in the experiment on NCI-H460, in the experiment on SNB-19, in the experiment with SF-268, with IGROV-1, with SW-620 and in the experiment on DMS-273 was > 100 µM (inactive) in each case. The GI50 in the experiment with DMS-114, in the experiment on KM12 and in the experiment on XF498 was > 100 µM (inactive) throughout.

On to `COc1ccc2oc(-c3cccnc3)cc(=O)c2c1`, for which the GI50 was 71.6 µM (inactive) in the experiment with LXFL 529; 47.5 µM (inactive) with LOX IMVI; > 100 µM (inactive) in the experiment with SK-MEL-2; > 100 µM (inactive) in the experiment with RXF 393; > 100 µM (inactive) with UACC-257; 32.4 µM (inactive) in the experiment on NCI-H460. The GI50 is 97.1 µM (inactive) in the experiment on SNB-19; 58.3 µM (inactive) in the experiment with SF-268; 70.8 µM (inactive) in the experiment with IGROV-1; 52 µM (inactive) in the experiment with DMS-273; 80.7 µM (inactive) with DMS-114; > 100 µM (inactive) in the experiment on KM12. Further, in the experiment with XF498, the GI50 is 95.1 µM (inactive).

For `NC(=O)c1ccccc1NC(=O)C(=O)Nc1n[nH]c(N)n1`, the GI50 is > 100 µM (inactive) with LXFL 529; > 100 µM (inactive) in the experiment with LOX IMVI; over 100 µM in the experiment with HCT-15; > 100 µM (inactive) in the experiment with TK-10; > 100 µM (inactive) in the experiment on SK-MEL-2; > 100 µM (inactive) in the experiment on RXF 393. Moreover, the GI50 in the experiment with UACC-257, with NCI-H460, in the experiment with SNB-19, in the experiment with IGROV-1, in the experiment with SW-620 and in the experiment with DMS-273 was > 100 µM (inactive) in each case. Also, the GI50 in the experiment with KM12 and with XF498 was > 100 µM (inactive) in each case.

With `C[C@]12CCC(=O)C=C1CC[C@@H]1C2CC[C@]2(C)NC(=O)C(C#N)CC12` (some centres not stated), the GI50 in the experiment with LXFL 529 was > 100 µM (inactive); in the experiment on HCT-15, over 100 µM; with TK-10, > 100 µM (inactive); with SK-MEL-2, > 100 µM (inactive); in the experiment with RXF 393, > 100 µM (inactive); with UACC-257 it was > 100 µM (inactive). The GI50 is > 100 µM (inactive) with NCI-H460; > 100 µM (inactive) in the experiment on IGROV-1; > 100 µM (inactive) in the experiment with SW-620; > 100 µM (inactive) in the experiment on DMS-273; > 100 µM (inactive) in the experiment on DMS-114; > 10 µM (inactive) in the experiment on KM12. Further, in the experiment on XF498, the GI50 was > 100 µM (inactive).

Take `COc1ccc2c(c1)O[C@H]1c3ccc(O)cc3OC[C@@H]21`: the GI50 in the experiment with LXFL 529 was 25.4 µM (inactive); in the experiment on LOX IMVI it was 13 µM (inactive); in the experiment on HCT-15 it was 34.1 µM; in the experiment with TK-10 it was 35.3 µM (inactive); in the experiment on SK-MEL-2, 26.5 µM (inactive); in the experiment on RXF 393, 19.3 µM (inactive). The GI50 was 21.8 µM (inactive) with UACC-257; 35.1 µM (inactive) in the experiment with NCI-H460; 68.1 µM (inactive) in the experiment with SNB-19; 28.1 µM (inactive) in the experiment with SF-268; 17.5 µM (inactive) in the experiment on IGROV-1; 33 µM (inactive) in the experiment on SW-620. The GI50 with DMS-273 was 30.9 µM (inactive); with XF498 it was 20.5 µM (inactive).

For the origin of these results see ChEMBL document CHEMBL1201862, “PubChem BioAssay data set” (2004).
